Laboratory results as given in patent US9290467B2, “Cyclic amides” (Hoffmann-La Roche Inc., priority 2012, dated 2016).

The compounds below were run against Cathepsin L (Homo sapiens (Human), UniProt P07711) (assay: Cathepsin enzyme inhibition assay (fluorogenic peptide substrate Z-Val-Val-Arg-AMC)). Conditions: enzyme 1 nM, substrate 20 μM, pH 6.5.
Chain of Cathepsin L (P07711 114-333): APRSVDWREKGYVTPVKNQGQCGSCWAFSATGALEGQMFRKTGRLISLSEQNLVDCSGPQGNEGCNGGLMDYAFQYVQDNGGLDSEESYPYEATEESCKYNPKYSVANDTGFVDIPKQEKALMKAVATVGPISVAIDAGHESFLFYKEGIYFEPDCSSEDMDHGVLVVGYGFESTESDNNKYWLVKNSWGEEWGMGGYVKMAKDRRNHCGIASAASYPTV
Assay type: biochemical
Method: Enzyme activity is measured by observing the increase in fluorescence intensity caused by cleavage of a peptide substrate containing a fluorophore whose emission is quenched in the intact peptide.
Assay buffer: 100 mM potassium phosphate pH 6.5, EDTA-Na 5 mM, Triton X-100 0.001%, DDT 5 mM.
Enzymes (all at 1 nM): human and mouse Cathepsin S, Cat K, Cat B, Cat L
Substrate (20 μM): Z-Val-Val-Arg-AMC, except for Cat K which uses Z-Leu-Arg-AMC (both from Bachem).
AMC=7-Amino-4-Methyl-Coumarin.
Excitation 360 nm, Emission 465 nm.
Enzyme is added to the substance dilutions in 96-well microtitre plates and the reaction is started with substrate. […] IC50 are calculated by standard methods. The results are expressed in μM in the following table.
In the case of `N#CC1(NC(=O)[C@@H]2Cc3ccc(c(Cl)c3)OC/C=C/CCN3CCCC3C(=O)N2)CC1` (mixture of isomers) [Example 12, (E)-(S)-18-Chloro-5-oxo-16-oxa-4,10-diaza-tricyclo[15.2.2.0*6,10*]henicosa-1(20),13,17(21),18-tetraene-3-carboxylic acid (1-cyano-cyclopropyl)-amide], the IC50 is reported as 878 nM.
In the case of `N#CC1(NC(=O)[C@@H]2Cc3ccc(c(Cl)c3)OC/C=C/CCN3C[C@@H](F)CC3C(=O)N2)CC1` (mixture of isomers) [Example 13, (E)-(3S,8S)-18-Chloro-8-fluoro-5-oxo-16-oxa-4,10-diaza-tricyclo[15.2.2.0*6,10*]henicosa-1(20),13,17(21),18-tetraene-3-carboxylic acid (1-cyano-cyclopropyl)-amide], the IC50 is reported as 948 nM.
`N#CC1(NC(=O)[C@@H]2Cc3ccc(c(Cl)c3)OC/C=C/CCN3CC(F)(F)CC3C(=O)N2)CC1` (mixture of isomers) [Example 14, (E)-(S)-18-Chloro-8,8-difluoro-5-oxo-16-oxa-4,10-diaza-tricyclo[15.2.2.0*6,10*]henicosa-1(20),13,17(21),18-tetraene-3-carboxylic acid (1-cyano-cyclopropyl)-amide] was tested, and the IC50 was 6060 nM.
`CC1(C)CC2C(=O)N[C@H](C(=O)NC3(C#N)CC3)Cc3ccc(c(Cl)c3)OC/C=C/CCN2C1` (mixture of isomers) [Example 15, (E)-(S)-18-Chloro-8,8-dimethyl-5-oxo-16-oxa-4,10-diaza-tricyclo[15.2.2.0*6,10*]henicosa-1(20),13,17(21),18-tetraene-3-carboxylic acid (1-cyano-cyclopropyl)-amide] gave an IC50 of 168 nM.
With `N#CC1(NC(=O)[C@@H]2Cc3ccc(cc3)OC/C=C/COc3cccc(c3)C(=O)N2)CC1` [Example 2, (E)-(S)-5-Oxo-11,16-dioxa-4-aza-tricyclo[15.2.2.1*6,10*]docosa-1(20),6,8,10(22),13,17(21),18-heptaene-3-carboxylic acid (1-cyano-cyclopropyl)-amide] the IC50 was 230 nM.
Work on `N#CC1(NC(=O)[C@@H]2Cc3ccc(cc3)OC/C=C/CCc3ccccc3C(=O)N2)CC1` [Example 3, (E)-(S)-5-Oxo-17-oxa-4-aza-tricyclo[16.2.2.0%6,11&]docosa-1(21),6,8,10,14,18(22),19-heptaene-3-carboxylic acid (1-cyano-cyclopropyl)-amide] yielded an IC50 of 77 nM.
For `N#CC1(NC(=O)[C@@H]2Cc3ccc(c(Cl)c3)OC/C=C/COc3ccccc3C(=O)N2)CC1` [Example 4, (E)-(S)-19-Chloro-5-oxo-12,17-dioxa-4-aza-tricyclo[16.2.2.0*6,11*]docosa-1(21),6(11),7,9,14,18(22),19-heptaene-3-carboxylic acid (1-cyano-cyclopropyl)-amide], the IC50 was 13.8 nM.
`N#CC1(NC(=O)[C@@H]2Cc3ccc(c(Cl)c3)OC/C=C/CCc3ccccc3C(=O)N2)CC1` [Example 5, (E)-(S)-19-Chloro-5-oxo-17-oxa-4-aza-tricyclo[16.2.2.0*6,11*]docosa-1(21),6,8,10,14,18(22),19-heptaene-3-carboxylic acid (1-cyano-cyclopropyl)-amide] showed an IC50 of 9.6 nM.
`N#CC1(NC(=O)[C@@H]2Cc3ccc(c(Cl)c3)OC/C=C/COc3cccc(c3)C(=O)N2)CC1` [Example 6, (E)-(S)-18-Chloro-5-oxo-11,16-dioxa-4-aza-tricyclo[15.2.2.1*6,10*]docosa-1(20),6,8,10(22),13,17(21),18-heptaene-3-carboxylic acid (1-cyano-cyclopropyl)-amide] showed an IC50 of 32 nM.
`N#CC1(NC(=O)[C@@H]2Cc3ccc(c(Cl)c3)OCCCCOc3ccccc3C(=O)N2)CC1` [Example 7, (S)-19-Chloro-5-oxo-12,17-dioxa-4-aza-tricyclo[16.2.2.0*6,11*]docosa-1(21),6,8,10,18(22),19-hexaene-3-carboxylic acid (1-cyano-cyclopropyl)-amide] was tested, and the IC50 was 96.2 nM.
`N#CC1(NC(=O)[C@@H]2Cc3ccc(c(Cl)c3)OC/C=C/COc3ccc(Br)cc3C(=O)N2)CC1` [Example 8, (E)-(S)-8-Bromo-19-chloro-5-oxo-12,17-dioxa-4-aza-tricyclo[16.2.2.0*6,11*]docosa-1(21),6,8,10,14,18(22),19-heptaene-3-carboxylic acid (1-cyano-cyclopropyl)-amide] was tested, and the IC50 was 24.8 nM.
`N#CC1(NC(=O)[C@@H]2Cc3ccc(c(Cl)c3)OCCCCOc3ccc(Br)cc3C(=O)N2)CC1` [Example 9, (S)-8-Bromo-19-chloro-5-oxo-12,17-dioxa-4-aza-tricyclo[16.2.2.0%6,11&]docosa-1(21),6,8,10,18(22),19-hexaene-3-carboxylic acid (1-cyano-cyclopropyl)-amide] showed an IC50 of 10 nM.
Work on `N#CC1(NC(=O)[C@@H]2Cc3ccc(c(Cl)c3)OC/C=C/COc3ccc(Cl)cc3C(=O)N2)CC1` [Example 10, (E)-(S)-8,19-Dichloro-5-oxo-12,17-dioxa-4-aza-tricyclo[16.2.2.0*6,11*]docosa-1(21),6,8,10,14,18(22),19-heptaene-3-carboxylic acid (1-cyano-cyclopropyl)-amide] yielded an IC50 of 10.3 nM.
With `N#CC1(NC(=O)[C@@H]2Cc3ccc(c(Cl)c3)OCCCCOc3ccc(Cl)cc3C(=O)N2)CC1` [Example 11, (S)-8,19-Dichloro-5-oxo-12,17-dioxa-4-aza-tricyclo[16.2.2.0*6,11*]docosa-1(21),6,8,10,18(22),19-hexaene-3-carboxylic acid (1-cyano-cyclopropyl)-amide] the IC50 was 11.6 nM.
For `COc1ccc2c(c1)C(=O)N[C@H](C(=O)NC1(C#N)CC1)Cc1ccc(c(Cl)c1)OC/C=C/CO2` [Example 16, (E)-(S)-19-Chloro-8-methoxy-5-oxo-12,17-dioxa-4-aza-tricyclo[16.2.2.0*6,11*]docosa-1(21),6,8,10,14,18(22),19-heptaene-3-carboxylic acid (1-cyano-cyclopropyl)-amide], the IC50 was 11.4 nM.
With `COc1ccc2c(c1)C(=O)N[C@H](C(=O)NC1(C#N)CC1)Cc1ccc(c(Cl)c1)OCCCCO2` [Example 17, (S)-19-Chloro-8-methoxy-5-oxo-12,17-dioxa-4-aza-tricyclo[16.2.2.0*6,11*]docosa-1(21),6,8,10,18(22),19-hexaene-3-carboxylic acid (1-cyano-cyclopropyl)-amide] the IC50 was 10.4 nM.
`N#CC1(NC(=O)[C@@H]2Cc3ccc(c(Cl)c3)OC/C=C/COc3cc(C(F)(F)F)ccc3C(=O)N2)CC1` [Example 20, (E)-(S)-19-Chloro-5-oxo-9-trifluoromethyl-12,17-dioxa-4-aza-tricyclo[16.2.2.0*6,11*]docosa-1(21),6,8,10,14,18(22),19-heptaene-3-carboxylic acid (1-cyano-cyclopropyl)-amide] gave an IC50 of 47.7 nM.
`N#CC1(NC(=O)[C@@H]2Cc3ccc(c(Cl)c3)OC/C=C/CNc3ccccc3C(=O)N2)CC1` [Example 21, (E)-(S)-19-Chloro-5-oxo-17-oxa-4,12-diaza-tricyclo[16.2.2.0*6,11*]docosa-1(21),6,8,10,14,18(22),19-heptaene-3-carboxylic acid (1-cyano-cyclopropyl)-amide] was tested, and the IC50 was 54 nM.
`COc1ccc2c(c1)CCCCCOc1ccc(cc1Cl)C[C@@H](C(=O)NC1(C#N)CC1)NC2=O` [Example 22, (S)-19-Chloro-9-methoxy-5-oxo-17-oxa-4-aza-tricyclo[16.2.2.0*6,11*]docosa-1(21),6,8,10,18(22),19-hexaene-3-carboxylic acid (1-cyano-cyclopropyl)-amide] showed an IC50 of 118 nM.
With `N#CC1(NC(=O)[C@@H]2Cc3ccc(c(Cl)c3)OCCCCOc3cc(C(F)(F)F)ccc3C(=O)N2)CC1` [Example 23, (S)-19-Chloro-5-oxo-9-trifluoromethyl-12,17-dioxa-4-aza-tricyclo[16.2.2.0*6,11*]docosa-1(21),6,8,10,18(22),19-hexaene-3-carboxylic acid (1-cyano-cyclopropyl)-amide] the IC50 was 50 nM.
For `N#CC1(NC(=O)[C@@H]2Cc3ccc(c(I)c3)OC/C=C/COc3ccccc3C(=O)N2)CC1` [Example 24, (E)-(S)-19-Iodo-5-oxo-12,17-dioxa-4-aza-tricyclo[16.2.2.*6,11*]docosa-1(21),6,8,10,14,18(22),19-heptaene-3-carboxylic acid (1-cyano-cyclopropyl)-amide], the IC50 was 164 nM.
`N#CC1(NC(=O)[C@@H]2Cc3ccc(c(I)c3)OC/C=C/COc3ccccc3C(=O)N2)CC1` [Example 25, (E)-(S)-19-Iodo-5-oxo-12,17-dioxa-4-aza-tricyclo[16.2.2.0*6,11*]docosa-1(21),6,8,10,14,18(22),19-heptaene-3-carboxylic acid (1-cyano-cyclopropyl)-amide, stereoaxis R] was tested, and the IC50 was 236 nM.
For `N#CC1(NC(=O)[C@@H]2Cc3ccc(c(I)c3)OC/C=C/COc3ccccc3C(=O)N2)CC1` [Example 26, (E)-(S)-19-Iodo-5-oxo-12,17-dioxa-4-aza-tricyclo[16.2.2.0*6,11*]docosa-1(21),6,8,10,14,18(22),19-heptaene-3-carboxylic acid (1-cyano-cyclopropyl)-amide, stereoaxis S], the IC50 was 139 nM.
With `N#CC1(NC(=O)[C@@H]2Cc3ccc(c(Cl)c3)OC/C=C/COc3cc4c(cc3C(=O)N2)CCCC4)CC1` [Example 27, (3E,12S)-22-chloro-N-(1-cyanocyclopropyl)-14-oxo-2,5,11,12,13,14,16,17,18,19-decahydro-7,10-ethenonaphtho[2,3-b][1,12,5]dioxazacyclohexadecine-12-carboxamide] the IC50 was 16 nM.
`N#CC1(NC(=O)[C@@H]2Cc3ccc(c(I)c3)OC/C=C/COc3ccc(Cl)cc3C(=O)N2)CC1` [Example 28, (E)-(S)-8-Chloro-19-iodo-5-oxo-12,17-dioxa-4-aza-tricyclo[16.2.2.0*6,11*]docosa-1(21),6,8,10,14,18(22),19-heptaene-3-carboxylic acid (1-cyano-cyclopropyl)-amide] was tested, and the IC50 was 11 nM.
